Source: PubChem BioAssay AID248 (DTP/NCI, 2004)
Where “and” joins values, the source holds several entries; their conditions need not be identical. Equal values may be shown once. Toxic doses and inconclusive results are not listed. Cut-off read from the data, not from the text of the source: active = T/C of 150% or more; inactive = T/C below 125%.

Tested on: L1210 leukemia ip in BDF1 mice, survival T/C
Assay: NCI In Vivo Anticancer Drug Screen. Data for tumor model L1210 Leukemia (intraperitoneal) in B6D2F1 (BDF1) mice
Conditions: endpoint: mean survival time, higher = longer survival
Summary of the method: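 Tumor was transplanted into mice, which were then dosed with test compound or vehicle alone. Survival was recorded for each group, and the treated figure was expressed relative to the control figure.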

[1] = dose: 100.0 mg/kg/injection, schedule: Q01DX009 (ip), vehicle: Klucel (hydroxypropylcellulose) (HPC)
[2] = dose: 100.0 mg/kg/injection, schedule: Q04DX003 (ip), vehicle: Klucel (hydroxypropylcellulose) (HPC)
[3] = dose: 200.0 mg/kg/injection, schedule: Q01DX009 (ip), vehicle: Klucel (hydroxypropylcellulose) (HPC)
[4] = dose: 200.0 mg/kg/injection, schedule: Q04DX003 (ip), vehicle: Klucel (hydroxypropylcellulose) (HPC)
[5] = dose: 400.0 mg/kg/injection, schedule: Q01DX009 (ip), vehicle: Klucel (hydroxypropylcellulose) (HPC)
[6] = dose: 400.0 mg/kg/injection, schedule: Q04DX003 (ip), vehicle: Klucel (hydroxypropylcellulose) (HPC)
[7] = dose: 100.0 mg/kg/injection, schedule: Q01DX001 (ip), vehicle: saline
[8] = dose: 200.0 mg/kg/injection, schedule: Q01DX001 (ip), vehicle: saline
[9] = dose: 400.0 mg/kg/injection, schedule: Q01DX001 (ip), vehicle: saline
[10] = dose: 100.0 mg/kg/injection, schedule: Q04DX002 (ip), vehicle: saline with Tween-80
[11] = dose: 200.0 mg/kg/injection, schedule: Q04DX002 (ip), vehicle: saline with Tween-80
[12] = dose: 100.0 mg/kg/injection, schedule: Q04DX003 (ip), vehicle: saline with Tween-80
[13] = dose: 200.0 mg/kg/injection, schedule: Q04DX003 (ip), vehicle: saline with Tween-80
[14] = dose: 400.0 mg/kg/injection, schedule: Q04DX003 (ip), vehicle: saline with Tween-80
[15] = dose: 100.0 mg/kg/injection, schedule: Q01DX009 (ip), vehicle: saline with Tween-80
[16] = dose: 100.0 mg/kg/injection, schedule: Q01DX009 (ip), vehicle: saline
[17] = dose: 100.0 mg/kg/injection, schedule: Q04DX002 (ip), vehicle: saline
[18] = dose: 200.0 mg/kg/injection, schedule: Q01DX009 (ip), vehicle: saline
[19] = dose: 400.0 mg/kg/injection, schedule: Q01DX009 (ip), vehicle: saline
[20] = dose: 100.0 mg/kg/injection, schedule: Q01DX001 (ip), vehicle: carboxymethylcellulose (CMC)
[21] = dose: 200.0 mg/kg/injection, schedule: Q01DX001 (ip), vehicle: carboxymethylcellulose (CMC)

Measured: T/C

CC(=O)N(CCN(Cc1ccc(Oc2ccc([N+](=O)[O-])cc2[N+](=O)[O-])cc1)C(C)=O)CCN(Cc1ccc(Oc2ccc([N+](=O)[O-])cc2[N+](=O)[O-])cc1)C(C)=O
inactive: dose: 25.0 mg/kg/injection, schedule: Q01DX009 (ip), vehicle: other 102 % of control | dose: 50.0 mg/kg/injection, schedule: Q01DX009 (ip), vehicle: other 97 % of control | dose: 100.0 mg/kg/injection, schedule: Q01DX009 (ip), vehicle: other 96 % of control | dose: 200.0 mg/kg/injection, schedule: Q01DX009 (ip), vehicle: other 96 % of control | dose: 400.0 mg/kg/injection, schedule: Q01DX009 (ip), vehicle: other 93 % of control

CC(=O)CC(C)=Nc1ccc(Cl)cc1
inactive: [1] 97 % of control | [2] 96 % of control | [3] 105 % of control | [4] 110 % of control | [5] 108 % of control | [6] 104 % of control

COc1ccccc1/C=C/c1ccnc2ccccc12
inactive: [7] 101 % of control | dose: 100.0 mg/kg/injection, schedule: Q04DX003 (ip), vehicle: saline 97 % of control | [8] 102 % of control | dose: 200.0 mg/kg/injection, schedule: Q04DX003 (ip), vehicle: saline 100 % of control | [9] 98 % of control | dose: 400.0 mg/kg/injection, schedule: Q04DX003 (ip), vehicle: saline 93 % of control

COc1ccc(C(N)=O)cc1
inactive: [10] 94 % of control | [11] 94 % of control | dose: 400.0 mg/kg/injection, schedule: Q04DX002 (ip), vehicle: saline with Tween-80 109 % of control

O=[N+]([O-])c1ccccc1N=Nc1c(O)[nH]c2c(Cl)cc(Cl)cc12
inactive: [7] 105 % of control

CC(C)C(C)(O)C#N (centres undefined)
inactive: dose: 5.0 mg/kg/injection, schedule: Q01DX001 (ip), vehicle: saline 92 % of control | dose: 10.0 mg/kg/injection, schedule: Q01DX001 (ip), vehicle: saline 97 % of control | dose: 20.0 mg/kg/injection, schedule: Q01DX001 (ip), vehicle: saline 100 % of control

NCC1OC(OC2C(N)CC(N)C(O)C2O)C(NC(=O)c2ccccc2)C(O)C1O (centres undefined)
inactive: [2] 91 % of control | [4] 96 % of control | [6] 91 % of control

O=C(OCC(O)C1OC(COC(=O)c2ccccc2)C1O)c1ccccc1 (centres undefined)
inactive: dose: 100.0 mg/kg/injection, schedule: Q01DX001 (ip), vehicle: saline with Tween-80 101 % of control | dose: 200.0 mg/kg/injection, schedule: Q01DX001 (ip), vehicle: saline with Tween-80 97 % of control | dose: 400.0 mg/kg/injection, schedule: Q01DX001 (ip), vehicle: saline with Tween-80 97 % of control

CCOC(=O)C1(CCCN2C(=O)c3ccccc3C2=O)CC(C(=O)OCC)(C(=O)OCC)CCC1=O (centres undefined)
inactive: [10] 94 % of control | [11] 100 % of control

OCCOc1cccc(OCCO)c1
inactive: [12] 103 % of control | [13] 104 % of control | [14] 92 % of control

Cc1ccc(Cl)cc1NC(=O)c1ccc(Cl)cc1Cl
inactive: [1] 110 % of control | [2] 92 % of control | [3] 91 % of control | [4] 95 % of control | [5] 89 % of control | [6] 88 % of control

O=[N+]([O-])c1ccc(S(=O)(=O)Nc2ccccc2-c2ccccc2)cc1
inactive: [15] 96 % of control | [12] 91 % of control | dose: 200.0 mg/kg/injection, schedule: Q01DX009 (ip), vehicle: saline with Tween-80 98 % of control | [13] 91 % of control | dose: 400.0 mg/kg/injection, schedule: Q01DX009 (ip), vehicle: saline with Tween-80 96 % of control | [14] 86 % of control

CC1COC(C(F)(F)Cl)(C(F)(F)Cl)O1 (centres undefined)
inactive: [16] 93 % of control and 97 % of control | [17] 96 % of control and 101 % of control | [18] 94 % of control and 92 % of control | dose: 200.0 mg/kg/injection, schedule: Q04DX002 (ip), vehicle: saline 96 % of control and 103 % of control | [19] 93 % of control and 105 % of control | dose: 400.0 mg/kg/injection, schedule: Q04DX002 (ip), vehicle: saline 100 % of control and 105 % of control

CCOC(=O)c1cnc(SC)nc1Nc1ccccc1F
inactive: [12] 89 % of control | [13] 92 % of control

CC(C)(C)c1nc2ccc([N+](=O)[O-])cc2[nH]1
inactive: dose: 38.0 mg/kg/injection, schedule: Q01DX009 (ip), vehicle: other 104 % of control | dose: 75.0 mg/kg/injection, schedule: Q01DX001 (ip), vehicle: other 92 % of control | dose: 75.0 mg/kg/injection, schedule: Q04DX003 (ip), vehicle: other 92 % of control | dose: 150.0 mg/kg/injection, schedule: Q01DX001 (ip), vehicle: other 91 % of control | dose: 150.0 mg/kg/injection, schedule: Q04DX003 (ip), vehicle: other 92 % of control | dose: 300.0 mg/kg/injection, schedule: Q01DX001 (ip), vehicle: other 97 % of control

CN(C)Cc1c[nH]c2c1S/C(=C/c1ccccc1)C2=O
inactive: dose: 100.0 mg/kg/injection, schedule: Q01DX001 (ip), vehicle: Klucel (hydroxypropylcellulose) (HPC) 105 % of control | dose: 200.0 mg/kg/injection, schedule: Q01DX001 (ip), vehicle: Klucel (hydroxypropylcellulose) (HPC) 96 % of control | dose: 400.0 mg/kg/injection, schedule: Q01DX001 (ip), vehicle: Klucel (hydroxypropylcellulose) (HPC) 100 % of control

ONC(=NCc1ccccc1)c1ccccc1
inactive: [20] 97 % of control | [21] 103 % of control

CCCCCCCN1CCCC(OC(=O)N(C)C)C1 (centres undefined)
inactive: dose: 25.0 mg/kg/injection, schedule: Q04DX002 (ip), vehicle: saline 110 % of control | dose: 50.0 mg/kg/injection, schedule: Q04DX002 (ip), vehicle: saline 103 % of control | [17] 110 % of control and 89 % of control

COc1ccccc1OC(=O)Nc1ccc(C)c([N+](=O)[O-])c1
inactive: dose: 25.0 mg/kg/injection, schedule: Q01DX009 (ip), vehicle: saline with Tween-80 95 % of control | dose: 50.0 mg/kg/injection, schedule: Q01DX009 (ip), vehicle: saline with Tween-80 118 % of control | [15] 92 % of control

Nc1cccc2cccc([N+](=O)[O-])c12
inactive: [20] 100 % of control | [16] 87 % of control | [21] 94 % of control | [18] 94 % of control | dose: 400.0 mg/kg/injection, schedule: Q01DX001 (ip), vehicle: carboxymethylcellulose (CMC) 96 % of control

CC1(C)CCC2CC(=O)OC2(C)C1 (centres undefined)
inactive: [7] 109 % of control | [16] 100 % of control | [8] 95 % of control | [18] 94 % of control | [9] 92 % of control | [19] 98 % of control

CSc1nc(C(Cl)Cl)cnc1Cl
inactive: dose: 100.0 mg/kg/injection, schedule: Q04DX002 (ip), vehicle: Klucel (hydroxypropylcellulose) (HPC) 102 % of control | dose: 200.0 mg/kg/injection, schedule: Q04DX002 (ip), vehicle: Klucel (hydroxypropylcellulose) (HPC) 91 % of control | dose: 400.0 mg/kg/injection, schedule: Q04DX002 (ip), vehicle: Klucel (hydroxypropylcellulose) (HPC) 105 % of control

O=C(O)CN(Cc1ccccc1)C(=O)COc1ccc(Cl)c(Cl)c1
inactive: dose: 100.0 mg/kg/injection, schedule: Q04DX003 (ip), vehicle: gum acacia 100 % of control | dose: 200.0 mg/kg/injection, schedule: Q04DX003 (ip), vehicle: gum acacia 92 % of control | dose: 400.0 mg/kg/injection, schedule: Q04DX003 (ip), vehicle: gum acacia 91 % of control

c1ccc(NC2=NCCCN2)cc1
inactive: dose: 12.5 mg/kg/injection, schedule: Q01DX001 (ip), vehicle: saline with Tween-80 102 % of control | dose: 25.0 mg/kg/injection, schedule: Q01DX001 (ip), vehicle: saline with Tween-80 97 % of control | dose: 50.0 mg/kg/injection, schedule: Q01DX001 (ip), vehicle: saline with Tween-80 91 % of control

O=C(O)c1cc([N+](=O)[O-])ccc1P(=O)(O)O
inactive: dose: 75.0 mg/kg/injection, schedule: Q01DX001 (ip), vehicle: saline 93 % of control | dose: 150.0 mg/kg/injection, schedule: Q01DX001 (ip), vehicle: saline 95 % of control
